Data: paper PMC9815576, “Cell-surface protein YwfG of Lactococcus lactis binds to α-1,2-linked mannose” (PLOS ONE, 2023)
Several values for one entry are separate records, joined by “and”; a condition that tells them apart may be missing. Equal values may be shown once. Entries after “also recorded” stand apart in the source; their conditions may differ. Read-outs that look alike come from different tables or passages of the source.

Key:
YwfG28–336 = assay: ITC of sugars against YwfG28–336; type: binding, Lactococcus lactis subsp. lactis G50; settings: 100 μM YwfG28–336, 25°C
Description: (§1) A MicroCal iTC200 system (Malvern Panalytical, Almelo, Netherlands) was used to measure enthalpy changes associated with interactions between the YwfG variants and the following yeast cell-wall components: the monosaccharides D-glucose, D-galactose, D-mannose, D-fucose, N-acetyl-D-glucosamine (GlcNAc), and 2-(acetylamino)-2-deoxy-D-galactose (GalNAc) (Sigma-Aldrich); α-1,2-, α-1,3-, α-1,4-, and α-1,6-mannobiose (Dextra Laboratories, Reading, UK); mannan from S. cerevisiae (Sigma-Aldrich); and yeast mannoproteins.
(§2) A solution of YwfG variant (100 μM YwfG28–270, YwfG28–336, YwfG28–511, or MubR4 in 20 mM Tris-HCl [pH 7.5]) was placed in a 200-μL calorimeter cell, and test solution (10 mM for monosaccharides, 2 mM for monosaccharides and mannobioses, 10 mg mL^−1 for yeast mannan, OD280 1.0 for mannoproteins) was loaded into the injection syringe. The test solution was titrated into the sample cell as a sequence of 20 injections of 2-μL aliquots each. All experiments were performed at 25°C.

YwfG28–511 = assay: ITC of sugars against YwfG28–511; type: binding, Lactococcus lactis subsp. lactis G50; settings: 100 μM YwfG28–511, 25°C
Description: as §1, §2

[1] = biological target: YwfG28–270 (L-type lectin domain of YwfG) (Lactococcus lactis subsp. lactis, UniProt S6FKX6); assay: Isothermal titration calorimetry (ITC) of sugars, mannan and mannoproteins against YwfG28–270; type: binding, Lactococcus lactis subsp. lactis G50; settings: for Interaction with YwfG28–270 observed by ITC: 100 μM YwfG28–270, 25°C; for ΔH, enthalpy change / ΔS, entropy change: YwfG28–270
Chain of YwfG28–270 (L-type lectin domain of YwfG) (S6FKX6 entry or part of it): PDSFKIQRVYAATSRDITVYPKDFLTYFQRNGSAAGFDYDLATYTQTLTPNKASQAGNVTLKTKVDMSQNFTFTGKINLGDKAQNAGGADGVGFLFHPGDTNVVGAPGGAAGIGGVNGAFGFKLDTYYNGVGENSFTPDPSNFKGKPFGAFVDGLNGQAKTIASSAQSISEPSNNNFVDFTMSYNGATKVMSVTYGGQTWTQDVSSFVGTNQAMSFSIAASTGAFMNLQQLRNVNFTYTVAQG
Description: as §1, §2

yeast X2180-1A = assay: Inhibition by sugars of yeast cell aggregation induced by YwfG variants; type: cell-based, Saccharomyces cerevisiae; settings: sugar 1 mM as printed
Procedure: Saccharomyces cerevisiae X2180-1A was cultured in YPD medium to an OD600 of 0.6.

[2] = tested on: MubR4 (YwfG residues 860–1034); assay: ITC of monosaccharides against MubR4; type: binding, Lactococcus lactis subsp. lactis G50; settings: 100 μM MubR4, 25°C
Description: as §1, §2

[3] = tested on: legume (L)-type lectin–like module of SraP; design: method as in PMID 24901708; settings: cited from earlier work
yeast cells = assay: Aggregation of yeast cells by lactococcal cells; type: cell-based, Saccharomyces cerevisiae; settings: 1 mM
Procedure: Lactococcal cells were cultured in CDMG and suspended in PBS to an OD600 of 1.0.

[4] = ITC, 25°C, 100 μM YwfG28–270 in 20 mM Tris-HCl pH 7.5, D-mannose: fixed stoichiometry (N = 1)
[5] = ITC, 25°C, 100 μM YwfG28–270 in 20 mM Tris-HCl pH 7.5, D-mannose: fixed stoichiometry (N = 1), read-out: KD, dissociation constant
[6] = ITC, 25°C, D-mannose: fixed stoichiometry (N = 1)

Compound | Interaction with YwfG28–336 observed by ITC (YwfG28–336) | Interaction with YwfG28–511 observed by ITC (YwfG28–511) | Interaction with YwfG28–270 observed by ITC [1] | N (sites), stoichiometry [1, 4] | Kd [1, 5] | ΔH, enthalpy change [1, 6] | ΔS, entropy change [1, 6] | Inhibition of aggregation induced by YwfG28–336 (yeast X2180-1A) | Inhibition of aggregation induced by YwfG28–511 (yeast X2180-1A) | Interaction with MubR4 observed by ITC [2] | Kd [1] | Binding to the L-type lectin–like module of SraP [3] | Inhibition of aggregation induced by L. lactis G50 (yeast cells)
OC[C@H]1O[C@H](O[C@@H]2C(O)O[C@H](CO)[C@@H](O)[C@@H]2O)[C@@H](O)[C@@H](O)[C@@H]1O (stereo partly drawn) [α-1,2-mannobiose] | No binding | No binding | bound | 1.19 ± 0.0104 sites | 34 µM and 34.4 µM | -5.236 ± 0.06207 kcal/mol | 2.86 cal/mol/deg | clearly inhibited | clearly inhibited | – | – | – | –
OC[C@H]1O[C@H](O[C@H]2[C@H](O)[C@H](O)C(O)O[C@@H]2CO)[C@@H](O)[C@@H](O)[C@@H]1O (stereo partly drawn) [α-1,4-mannobiose] | No binding | No binding | bound | 1.82 ± 0.171 sites | 328 ± 91 µM | -2.206 ± 0.3097 kcal/mol | 9.55 cal/mol/deg | weakly inhibited | weakly inhibited | – | – | – | –
OC[C@H]1OC(O)[C@H](O)[C@@H](O)[C@@H]1O (stereo partly drawn) [D-glucose] | only combination of variant and monosaccharide that showed an interaction was YwfG28–270 with D-mannose | only combination of variant and monosaccharide that showed an interaction was YwfG28–270 with D-mannose | only combination of variant and monosaccharide that showed an interaction was YwfG28–270 with D-mannose | – | – | – | – | – | – | only combination of variant and monosaccharide that showed an interaction was YwfG28–270 with D-mannose | – | – | –
OC[C@H]1O[C@H](OC[C@H]2O[C@H](O)[C@@H](O)[C@@H](O)[C@@H]2O)[C@@H](O)[C@@H](O)[C@@H]1O [α-1,6-mannobiose] | No binding | No binding | bound | 1.21 ± 0.0839 sites | 210 ± 13 µM | -4.235 ± 0.3728 kcal/mol | 2.62 cal/mol/deg | weakly inhibited | weakly inhibited | – | – | – | –
CC(=O)N[C@@H](C=O)[C@@H](O)[C@@H](O)[C@H](O)CO [GalNAc, 2-(acetylamino)-2-deoxy-D-galactose] | only combination of variant and monosaccharide that showed an interaction was YwfG28–270 with D-mannose | only combination of variant and monosaccharide that showed an interaction was YwfG28–270 with D-mannose | only combination of variant and monosaccharide that showed an interaction was YwfG28–270 with D-mannose | – | – | – | – | – | – | only combination of variant and monosaccharide that showed an interaction was YwfG28–270 with D-mannose | – | – | –
C[C@H]1OC(O)[C@H](O)[C@@H](O)[C@H]1O (stereo partly drawn) [D-fucose] | only combination of variant and monosaccharide that showed an interaction was YwfG28–270 with D-mannose | only combination of variant and monosaccharide that showed an interaction was YwfG28–270 with D-mannose | only combination of variant and monosaccharide that showed an interaction was YwfG28–270 with D-mannose | – | – | – | – | – | – | only combination of variant and monosaccharide that showed an interaction was YwfG28–270 with D-mannose | – | – | –
OC[C@H]1OC(O)[C@@H](O)[C@@H](O)[C@@H]1O (stereo partly drawn) [D-mannose] | only combination of variant and monosaccharide that showed an interaction was YwfG28–270 with D-mannose | only combination of variant and monosaccharide that showed an interaction was YwfG28–270 with D-mannose | only interaction observed; also recorded: showed an interaction | (1.00) sites | – | -2.098 ± 0.08359 kcal/mol | 8.07 cal/mol/deg | inhibited | not by YwfG28–270 or YwfG28–511 was inhibited | only combination of variant and monosaccharide that showed an interaction was YwfG28–270 with D-mannose | 500 ± 37 µM | – | –
CC(=O)N[C@@H]1[C@@H](O)[C@H](O)[C@@H](CO)O[C@@H]1O [GlcNAc, N-acetyl-D-glucosamine] | only combination of variant and monosaccharide that showed an interaction was YwfG28–270 with D-mannose | only combination of variant and monosaccharide that showed an interaction was YwfG28–270 with D-mannose | only combination of variant and monosaccharide that showed an interaction was YwfG28–270 with D-mannose | – | – | – | – | – | – | only combination of variant and monosaccharide that showed an interaction was YwfG28–270 with D-mannose | – | – | –
CC(=O)N[C@H]1[C@H]([C@H](O)[C@H](O)CO)OC(O)(C(=O)O)C[C@@H]1O (some centres unmarked) [N-acetylneuraminic acid] | – | – | – | – | – | – | – | – | – | – | – | specifically binds | –
CO[C@H]1O[C@H](CO)[C@@H](O)[C@H](O)[C@@H]1O [methyl α-D-mannoside] | only combination of variant and monosaccharide that showed an interaction was YwfG28–270 with D-mannose | only combination of variant and monosaccharide that showed an interaction was YwfG28–270 with D-mannose | only combination of variant and monosaccharide that showed an interaction was YwfG28–270 with D-mannose | – | – | – | – | inhibited | not by YwfG28–270 or YwfG28–511 was inhibited | only combination of variant and monosaccharide that showed an interaction was YwfG28–270 with D-mannose | – | – | inhibited
OC[C@H]1O[C@H](O[C@H]2[C@H](O)[C@@H](CO)OC(O)[C@H]2O)[C@@H](O)[C@@H](O)[C@@H]1O (stereo partly drawn) [α-1,3-mannobiose] | No binding | No binding | bound | 0.757 ± 0.148 sites | 172 ± 21 µM | -6.073 ± 1.387 kcal/mol | −3.15 cal/mol/deg | weakly inhibited | weakly inhibited | – | – | – | –
O=C[C@H](O)[C@@H](O)[C@@H](O)[C@H](O)CO [D-galactose] | only combination of variant and monosaccharide that showed an interaction was YwfG28–270 with D-mannose | only combination of variant and monosaccharide that showed an interaction was YwfG28–270 with D-mannose | only combination of variant and monosaccharide that showed an interaction was YwfG28–270 with D-mannose | – | – | – | – | – | – | only combination of variant and monosaccharide that showed an interaction was YwfG28–270 with D-mannose | – | – | –
